{
  "source": "patent US6008222A",
  "about": "(Bristol-Myers Squibb Company, priority 1997, dated 1999)",
  "key": {"[1]": {"system": "antidepressant effect", "details": "co-administered with an antidepressant drug regimen such as fluoxetine; cited from earlier work"}, "[2]": {"details": "in vivo, cited from earlier work"}, "[3]": {"details": "human, in vivo"}, "[4]": {"system": "patients undergoing diazepam-withdrawal", "details": "human, in vivo; cited from earlier work"}, "[5]": {"experiment": "six subject pharmacokinetic study: buspirone and 1-PP blood levels following seven days of drug administration"}, "[6]": {"experiment": "clinical", "details": "human, in vivo, po"}, "[7]": {"system": "anxiety disorders and depression", "details": "U.S. Pat. No. 3,717,634; cited from earlier work"}, "[8]": {"system": "cytochrome P4503A3/4", "details": "J. Clin. Psychiatry, 57:7, July 1996; cited from earlier work"}, "[9]": {"system": "cytochrome P4503A4", "details": "cited from earlier work"}, "[10]": {"details": "J. Clin. Psychiatry, 57:7, July 1996; cited from earlier work"}, "[11]": {"system": "rat", "details": "systemic administration of 1-PP; cited from earlier work"}, "[12]": {"system": "diazepam-withdrawn animals", "details": "cited from earlier work"}, "[13]": {"system": "anxiolytic activity", "details": "cited from earlier work"}, "[14]": {"system": "diazepam-naive subjects", "details": "previous studies; cited from earlier work"}, "[15]": {"details": "human, in vivo; cited from earlier work"}},
  "note": "Entries after “also recorded” stand apart in the source; their conditions may differ.",
  "data": [
    {"smiles": "O=C1CC2(CCCC2)CC(=O)N1CCCCN1CCN(c2ncccn2)CC1", "note": "[Buspirone, 8-[4-[4-(2-pyrimidinyl)1-piperazinyl]butyl]-8-azaspiro(4,5)-decane,7,9-dione]", "values": [
      {"measurement": "augmentation of an antidepressant effect", "setting": "[1]", "value": "effective"},
      {"measurement": "absorption", "setting": "[2]; po", "value": "rapidly absorbed"},
      {"measurement": "intra- and inter-patient variations in blood levels", "setting": "[3]", "value": "reduced"},
      {"measurement": "treatment of patients undergoing diazepam-withdrawal", "setting": "[4]", "value": "failed to adequately treat"},
      {"measurement": "disappearance of buspirone", "setting": "[5]; concurrent administration of nefazodone", "value": "delayed"},
      {"measurement": "AUC(0-t) at […]", "setting": "[6]", "value": "29.4 ± 9.9", "unit": "ng·h/mL"},
      {"measurement": "Cmax at […]", "setting": "[6]", "value": "8 ± 3.3", "unit": "ng/mL"},
      {"measurement": "Tmax at […]", "setting": "[6]", "value": 1, "unit": "h"},
      {"measurement": "half-life at […]", "setting": "[6]; T1/2 of buspirone", "value": "156 ± 108", "unit": "min"},
      {"measurement": "effectiveness for the treatment of anxiety disorders and depression", "setting": "[7]", "value": "effective"}
    ]},
    {"smiles": "CCc1nn(CCCN2CCN(c3cccc(Cl)c3)CC2)c(=O)n1CCOc1ccccc1", "note": "[Nefazodone]", "values": [
      {"measurement": "inhibition of cytochrome P4503A3/4", "setting": "[8]", "value": "inhibition"},
      {"measurement": "inhibition of cytochrome P4503A4", "setting": "[9]", "value": "an inhibitor"},
      {"measurement": "inhibition of buspirone metabolism", "setting": "[5]; in the presence of nefazodone, preliminary study data", "value": "marked inhibition of buspirone metabolism"},
      {"measurement": "effect on concentration and toxicity of alprazolam and triazolam", "setting": "[10]", "value": "increasing the concentration and toxicity of alprazolam and triazolam"}
    ]},
    {"smiles": "c1cnc(N2CCNCC2)nc1", "note": "[1-PP, 1-(2-pyrimidinyl)-piperazine]", "values": [
      {"measurement": "plasma levels of 1-PP", "setting": "[2]", "value": "much higher plasma levels"},
      {"measurement": "antagonism of intracerebral buspirone activity", "setting": "[11]", "value": "could be blocked"},
      {"measurement": "intra- and inter-patient variations in blood levels", "setting": "[3]", "value": "reduced"},
      {"measurement": "effect in social interaction paradigms", "setting": "[12]", "value": "anxiogenic effect"},
      {"measurement": "anxiolytic activity", "setting": "[13]; certain tests / earlier animal testing", "value": "(weak) antianxiety activity; also recorded: weak anxiolytic activity"},
      {"measurement": "antagonism of the anxiolytic and/or antidepressant action of buspirone", "setting": "[13]; other tests", "value": "antagonizes the desired anxiolytic and/or antidepressant action of buspirone"},
      {"measurement": "effect on social interaction", "setting": "[14]", "value": "not shown any effect"},
      {"measurement": "association of high 1-PP levels with undesired or adverse events", "setting": "[15]", "value": "associated with the occurrence of undesired or adverse events"}
    ]}
  ]
}
